# Reference: US9248150B2 (priority 2009, dated 2016)
# Values joined by “and” are separate entries in the source; they are usually repeats but may differ in a detail not shown here. Equal values may be shown once. “Also recorded” adds a separate entry of the source.
# Columns and labels:
# [1] = tested on: outer hair cells of the organ of Corti; test: Outer hair cell damage by scanning electron microscopy, i.p. transplatin; assay type: in vivo, rat; details: 72 h
# UB/OC-1 cells [2] = test: Intracellular Ca2+ release by Fluo-4AM imaging; assay type: cell-based
# Description: UB/OC-1 cells were grown on glass coverslips. […] After incubation, cells were washed once with physiological buffer and then imaged by a Fluoview confocal microscope (Olympus Imaging America Inc., Center Valley, Pa., USA).
# NOX3 mRNA [3] = test: NOX3 mRNA by real time RT-PCR in UB/OC-1 cells; assay type: cell-based
# Description: RNA was isolated by adding 1 ml TRI reagent to 100 mg of cochlear tissue or 0.5 ml TRI reagent per well of each six well plate. Tissues were homogenized in TRI reagent using a Polytron (setting 7, 15 sec) and centrifuged at 12,000×g for 10 min at 4° C. The remainder of the procedure was identical to that described in D. Mukherjea et al., NEUROSCIENCE 139:733-740 (2006).
# (§1) For real time reverse transcriptase polymerase chain reaction (RT-PCR), one microgram of total RNA was converted to cDNA using iScript cDNA Synthesis Kit (Bio-Rad, Hercules, Calif.) and sample preparations were performed essentially as previously described (D. Mukherjea et al., NEUROSCIENCE 139:733-740 (2006)). Amplification and detection was performed with the Cepheid Smart Cycler Detection System. On completion of amplification, the melting curve analysis was performed by cooling the reaction to 60° C. and then heating slowly 95° C., according to the instruction of manufacturer (Cepheid systems). The cycle number at which the sample reaches the threshold fluorescent intensity is termed the cycle threshold (Ct). The relative change in mRNA levels between untreated control (1) and treated sample (2) was measured using the formula: 2-ΔΔCt (R. Soong et al., Quantitative reverse transcription-polymerase chain reaction detection of cytokeratin 20 in noncolorectal lymph nodes, CLIN. CANCER RES. 7:3423-3429 (2001)). Relative change in mRNA levels between samples was expressed as a percentage of normal control. Negative controls for both target gene and GAPDH was used for all reaction groups. Real time PCR products were analyzed on a 2% agarose gel to verify the correct product sizes and visualization of the amplified product was effected using the dye SyBr Green I (Molecular Probes, Eugene, Oreg.).
# [4] = tested on: dorsal root ganglion (DRG) cells; test: NGF-induced ROS generation in dorsal root ganglion cells (H2DCFDA); assay type: cell-based, neonatal mice; details: transplatin 2.5 μM 30 min prior to NGF 100 ng/ml
# Description: Recent studies have shown that ROS generation is the single most important mediator of inflammation. Dorsal root ganglion (DRG) cells isolated from neonatal mice have shown increased ROS generation in response to nerve growth factor (NGF; data not shown). […] Fluorescent images were obtained at 0 sec and collected over a period of 5 min after addition of NGF (100 ng/ml). NGF generated ROS is shown by changes in fluorescence intensity over time.
# UB/OC-1 hair cells = test: Cell viability by trypan blue staining; assay type: cell-based
# Description: Cells were then treated with trypan blue and the number of viable cells per high power field determined and expressed as a percent of total cell per field. […] Data are present as the mean±standard error from four independent coverslips.
# KIM-1 mRNA [5] = test: Kidney KIM-1 mRNA by real time RT-PCR; assay type: in vivo, male Wistar rats; details: 72 h
# Source text: (§2) Kidneys were harvested, total RNA was isolated, reverse transcribed and real time RT-PCR performed substantially as described herein above. FIG. 8A is a bar graph of the increase in mRNA expression for each of KIM-1 (green), NOX3 (blue) and TRPV1 (red) observed. […] Attenuation of these markers by transplatin is indicative of its nephroprotective role.
# Body weight loss = assay type: in vivo, rat; details: data not shown
# NOX3 mRNA [6] = test: Kidney NOX3 mRNA by real time RT-PCR; assay type: in vivo, male Wistar rats; details: 72 h
# Source text: as §2
# [7] = tested on: outer hair cells of the organ of Corti; test: Outer hair cell damage/loss by SEM, trans-tympanic transplatin; assay type: in vivo, Wistar rats
# Description: Post-treatment ABRs were conducted 72 h later. […] This was abrogated by pretreatment with trans-tympanic transplatin. […] Arrows indicate areas of damage to outer hair cells.
# [8] = tested on: AT6.1 rat prostate cancer cells; test: Cisplatin killing of tumor cells (imaging); assay type: cell-based
# Source text: Cells were fixed with 4% paraformaldehyde and imaged. FIG. 5B is a panel of photomicrographs of the cell images.
# KIM-1 = KIM-1 immunoreactivity in cochlea sections; assay type: in vivo, male Wistar rats; details: 72 h
# Description: Cochleas were harvested 72 h later, fixed in 4% paraformaldehyde, decalcified, sectioned and stained for KIM1 immunoreactivity. FIG. 3C is a panel of photomicrographs of the cochlea sections from following the different treatment conditions and stained for KIM-1 immunoreactivity. […] (SVA-stria vascularis, OHC-outer hair cell, RM-Reissner's membrane, SG—spiral ganglion).
# [9] = Body temperature after i.p. transplatin; assay type: in vivo, rat; details: transplatin 5.5 mg/kg i.p., every 30 min for 150 min, 2 rats
# Description: TRPV1 antagonists were initially developed as novel treatments for inflammatory pain. However, it was observed that the administration of classical TRPV1 antagonists produced hyperthermia in animals and human (N. R. Gavva, Body-temperature maintenance as the predominant function of the vanilloid receptor TRPV1. TRENDS PHARMACOL SCI 29:550-557 (2007)), underscoring a role of TRPV1 in the control of body temperature. […] Body temperature was then recorded every 30 min for 150 min. FIG. 11 is a graph of the results observed in two rats (Tp) and a control animal (PBS).
# [10] = tested on: HEK-293 cells stably transfected with TRPV1 receptor; test: Capsaicin-induced ROS generation in HEK-VR1 cells; assay type: cell-based; details: transplatin 2.5 μM pre-treatment; data not shown
# Source text: Thus, transplatin can be useful in the treatment of inflammatory conditions, such as arthritis, inflammatory and chronic pain and cancer pain.
# [11] = tested on: TRP and P2x receptor channels in UB/OC-1 cells; test: FM1-43 dye uptake via TRP and P2x channels; assay type: cell-based; details: for basal FM1-43 uptake (fluorescence): added alone
# Source text: FM1-43 is selectively taken up by cells expressing the TRP and P2x receptor channels.
# Cells were scanned every 6 sec by Argon laser (480 nm) and at the 6th scan FM1-43 dye was dropped on the cells. FIG. 6 is panel of photomicrographs of the cells following dye exposure. […] Each gray-scale image to the right of each fluorescence image is the differential interference constrast image for the cells shown in the corresponding fluorescence image.
# KIM-1 mRNA [12] = test: KIM-1 mRNA by real time RT-PCR in UB/OC-1 cells; assay type: cell-based
# Description: as §1, with “Negative controls for both target gene and GAPDH was used for all reaction groups.” left out, “Oreg.). […]” for “Oreg.).”
# [13] = Cisplatin-induced hearing loss, ABR threshold shifts, i.p. transplatin; assay type: in vivo, male Wistar rats
# Source text: Data are presented as the mean±standard error of 8 ears examined from 4 animals per group.
# NOX3 = NOX3 immunoreactivity in cochlea sections; assay type: in vivo, male Wistar rats
# TRPV1 mRNA [14] = test: Kidney TRPV1 mRNA by real time RT-PCR; assay type: in vivo, male Wistar rats; details: 72 h
# Source text: as §2
# TRPV1 mRNA [15] = test: TRPV1 mRNA by real time RT-PCR in UB/OC-1 cells; assay type: cell-based
# Description: as §1, with “Negative controls for both target gene and GAPDH was used for all reaction groups.” left out, “Oreg.). […]” for “Oreg.).”
# cellular DNA = details: cited from earlier work
# UB/OC-1 cells [16] = test: ROS generation by H2DCFDA fluorescence, confocal microscopy; assay type: cell-based
# Source text: Imaging of ROS generation was done as previously described (P. Puntambekar et al., Essential role of Rac1/NADPH oxidase in nerve growth factor induction of TRPV1 expression, J. NEUROCHEM. 95: 1689-1703 (2005)).
# [17] = transplatin 1 μM 30 min prior to cisplatin 5 μM
# [18] = transplatin 1, 2.5, 10 μM 30 min prior to cisplatin 5 μM 24 h
# [19] = transplatin 5.5 mg/kg i.p. alone
# [20] = transplatin 5.5 mg/kg i.p. followed by cisplatin 11 mg/kg i.p.
# [21] = trans-tympanic transplatin 50 μl of 0.5 mg/ml, then cisplatin 11 mg/kg i.p.
# [22] = transplatin 1 mg/kg i.p. then cisplatin 11 mg/kg i.p.
structure (smiles),measurement,setting,value
"N.N.[Cl][Pt][Cl] [transplatin, trans-diamminedichloroplatinum (II)]","outer hair cells damaged per field, basal turn of organ of Corti",[1]; transplatin 5.5 mg/kg i.p. pretreatment then cisplatin 11 mg/kg i.p.,below 10%
same,cisplatin-induced increase in intracellular Ca2+,UB/OC-1 cells [2]; [17],abrogated
same,cisplatin-induced increase in NOX3 mRNA,NOX3 mRNA [3]; [18],attenuated; also recorded: down regulates the increase in NOX3 mRNA
same,NOX3 mRNA expression,"NOX3 mRNA [3]; transplatin alone (1, 2.5 μM)",almost no expression of NOX3 mRNA
same,NGF-induced ROS generation,[4],inhibited ROS generation
same,cell survival,"UB/OC-1 hair cells; transplatin 1, 2.5, 10 μM 30 min prior to cisplatin 20 μM 24 h, depending on dose",80-97%
same,kidney KIM-1 mRNA expression compared to PBS controls,KIM-1 mRNA [5]; [19],1.7 fold
same,kidney KIM-1 mRNA expression,KIM-1 mRNA [5]; [20],1.1 fold
same,weight loss,Body weight loss; transplatin by itself,did not produce weight loss
same,cisplatin-mediated weight loss,Body weight loss; transplatin with cisplatin,did not inhibit cisplatin-mediated weight loss
same,kidney NOX3 mRNA expression compared to PBS controls,NOX3 mRNA [6]; [19],1.3 fold
same,kidney NOX3 mRNA expression,NOX3 mRNA [6]; [20],1.7 fold
same,cisplatin-induced outer hair cell damage (SEM morphology),[7]; [21],almost completely abrogated
same,outer hair cell damage/loss,[7]; [21],~7%
same,cell survival compared to vehicle control,[8]; transplatin alone,did not cause significant change in cell survival
same,cisplatin-induced KIM-1 immunolabeling in cochlea,KIM-1; [20],reduced; also recorded: decreased
same,body temperature,[9],did not produce any apparent increase in body temperature; also recorded: no apparent trend of higher body temperatures
same,ROS generation by 10 μM capsaicin,[10],inhibited
same,basal FM1-43 uptake (fluorescence),[11],reduced fluorescence below that of the control cells
same,FM1-43 dye entry after cisplatin,[11]; [17],decreased entry of the dye
same,cisplatin-induced KIM-1 mRNA,KIM-1 mRNA [12]; [18],attenuated to control levels
same,animals protected,[13]; [22],75%
same,reductions in ABR thresholds (number protected),[13]; [22],6 of 8
same,auditory protection,[13]; transplatin 3 mg/kg i.p. then cisplatin 11 mg/kg i.p.,complete protection
same,auditory protection,[13]; transplatin 5.5 mg/kg i.p. then cisplatin 11 mg/kg i.p.,complete protection
same,ABR thresholds,[13]; transplatin alone,did not affect the ABR thresholds
same,cisplatin-induced increase in NOX3 in cochlea,"NOX3; transplatin 5.5 mg/kg i.p. immediately before cisplatin 11 mg/kg i.p., 72 h",reduced
same,NOX3 expression in cochlea vs vehicle control,NOX3; transplatin alone,did not increase NOX3 expression
same,kidney TRPV1 mRNA expression compared to PBS controls,TRPV1 mRNA [14]; [19],0.5 fold
same,kidney TRPV1 mRNA expression,TRPV1 mRNA [14]; [20],1.5 fold
same,cisplatin-induced TRPV1 mRNA expression,"TRPV1 mRNA [15]; transplatin 1, 2.5, 10 μM 30 min prior to cisplatin 5 μM 24 h, 10 μM best inhibition",attenuated; also recorded: abrogated by transplatin at higher concentrations
same,time of maximum DNA binding,cellular DNA,6 h
same,cisplatin-induced increase in ROS generation,"UB/OC-1 cells [16]; pretreatment with transplatin 1 μM, then cisplatin 2.5 μM 30 min",attenuated; also recorded: significantly reduced
same,ROS generation,UB/OC-1 cells [16]; transplatin administered alone,did not stimulate ROS generation
"N.N.[Cl][Pt][Cl] [cisplatin, reference compound]","outer hair cells damaged per field, basal turn of organ of Corti",[1]; cisplatin 11 mg/kg i.p.,~40%
same,intracellular Ca2+ (Fluo-4AM fluorescence),"UB/OC-1 cells [2]; cisplatin 5 μM, 30 min",increased fluorescence
same,NOX3 mRNA,NOX3 mRNA [3]; cisplatin 5 μM,increase in NOX3 mRNA
same,cell death,"UB/OC-1 hair cells; cisplatin 20 μM, 24 h",~80%
same,kidney KIM-1 mRNA expression,KIM-1 mRNA [5]; cisplatin 11 mg/kg i.p.,50 fold
same,kidney NOX3 mRNA expression,NOX3 mRNA [6]; cisplatin 11 mg/kg i.p.,4 fold
same,outer hair cell damage/loss,"[7]; cisplatin 11 mg/kg i.p., 72 h",~70%
same,cell loss,"[8]; cisplatin 100 μM, 24 h",~80%
same,KIM-1 immunolabeling in organ of Corti / cochlea sections,KIM-1; cisplatin 11 mg/kg i.p.,induction of KIM-1 immunolabeling
same,uptake of FM1-43 dye,"[11]; cisplatin 5 μM alone, 30 min",increased uptake of FM1-43 dye
same,increase in KIM-1 mRNA expression over vehicle treated controls,"KIM-1 mRNA [12]; cisplatin 5 μM, 24 h",4 fold and 4±0.5 fold
same,"NOX3 immunoreactivity in cochlea (OHC, stria vascularis, spiral ganglion)","NOX3; cisplatin 11 mg/kg i.p., 72 h",increased NOX3 protein
same,kidney TRPV1 mRNA expression,TRPV1 mRNA [14]; cisplatin 11 mg/kg i.p.,6 fold
same,increase in TRPV1 mRNA expression over vehicle treated controls,"TRPV1 mRNA [15]; cisplatin 5 μM, 24 h",3.6 fold and 3.5±0.7 fold
same,ROS generation (H2DCFDA fluorescence),"UB/OC-1 cells [16]; cisplatin 2.5 μM, 30 min",marked increase in ROS generation; also recorded: increases ROS generation
"N.N.N.N.N.N.N.N.N.N.N.N.N.N.[Cl-].[Cl-].[Cl-].[Cl-].[Cl-].[Cl-].[O-2].[O-2].[Ru+3].[Ru+3].[Ru+4] [ruthenium red, reference compound]",basal FM1-43 uptake (fluorescence),[11],less inhibition of basal fluorescence than transplatin
